Read-outs that look alike come from different tables or passages of the source.

One series has as its system HIV-1. Also on record: method as in PMID 32229336, PMID 21561135, PMID 33172265, PMID 34445872. The settings on record: other tiglianes from the literature; ref [25],[26],[27],[28],[29]; read-out: IC50 anti-HIV-1 activity; cited from earlier work.
A further series has as its system HIV-1 NL4.3. In words: anti-HIV replication assay, HIV-1 NL4.3 in MT-4 cells (MTS/PES viability readout). It counts as cell-based. The protocol: (§1) The MT-4 cell line was a kind gift from Dr. L. Montagner (at that time at the Pasteur Institute; Paris, France). This cell line was cultured in RPMI medium (Thermo Fisher Scientific, Waltham, MA, USA) containing 10% fetal bovine serum (FBS; Thermo Fisher Scientific, Waltham, MA, USA) and 2 mM L-glutamine (Thermo Fisher Scientific, Waltham, MA, USA).
(§2) The HIV-1 strain NL4.3 (X4) and HIV-2 strain ROD (X4/R5) were obtained from the National Institute of Allergy and Infectious Disease AIDS program (Bethesda, MD, USA) and the Medical Research Council (MRC, London, UK), respectively. The HIV-1 strain HE (X4/R5) was originally isolated from a AIDS patient and was routinely cultured in MT-4 cells. The 50% tissue culture infectious doses of the virus stocks were used in the infection assays.
(§3) To determine the anti-HIV-activity of the compounds, MT-4 cells (5 × 10^4 cells) were treated with 5-fold dilutions of the compounds for 30 min at 37 °C, 5% CO2 in 96-well-plates. After 30 min, cells were infected with 100 TCID50 (tissue culture infective dose 50%) HIV-1 (NL4.3) or HIV-2 (ROD) virus stocks. After five days of incubation (37 °C, 5% CO2), the cytopathic effect was checked microscopically, and cell viability was evaluated using the MTS/PES-based CellTiter 96 Aqueous One Solution Cell Proliferation assay (Promega Madison, WI, USA). Absorbance at 490 nm was measured using the VersaMax ELISATM microplate reader (Molecular Devices) and analyzed with the SoftMax Pro software (Molecular Devices, Version 4.0, www.moleculardevices.com, accessed on 10 January 2015). The IC50-values were calculated based on the absorbance signals measured in the negative (i.e., untreated and uninfected cells) and positive (i.e., untreated virus-infected cells) control samples.

A short description of series [1]: cellular toxicity in uninfected MT-4 cells (MTS method). Format: cell-based. The conditions noted are these: human. The protocol: as §1, §3
The CC50 or 50% cellular cytoxic concentration of compounds was determined from the reduction of viability of uninfected MT-4 cells or PBMCs exposed to the compounds, as measured by the MTS method described above.
In general terms: Tetrazolium dyes change colour on reduction, which living cells bring about.

The test system of another series is HIV-2 ROD. The series can be described thus: anti-HIV replication assay, HIV-2 ROD in MT-4 cells (MTS/PES viability readout). Format: cell-based. The settings on record: Human immunodeficiency virus 2, MT4, 120 h, read-out: IC50 HIV-2. Here is the method: as §1, §2, §3
The mark [2] stands for this setting: Human immunodeficiency virus 1, MT4, 120 h, read-out: IC50 HIV-1.
Where [3] appears, read: Human immunodeficiency virus 1, MT4, read-out: IC50 values, anti-HIV activity.

Consider `CCCCCCCCCCCCCCCC(=O)O[C@@]12C[C@@H](C)[C@@]3(O)[C@@H](C=C(CO)C[C@]4(O)C(=O)C(C)=C[C@@H]34)[C@@H]1C2(C)C` [12-deoxyphorbol-13-hexadecanoate], for which the IC50 (as a rule, the point on the concentration scale where inhibition reaches its midpoint) in the series on HIV-1 was 0.022 µM.

In the case of `c1cc(CN2CCCNCCNCCCNCC2)ccc1CN1CCCNCCNCCCNCC1` [AMD3100, reference compound], the IC50 in the series on HIV-1 NL4.3 (Human immunodeficiency virus 1, MT4, 120 h, HIV-1 NL4.3 replication in MT-4 cells, five days, read-out: IC50 HIV-1) came to 0.008 ± 0.002 µM; in the series on HIV-2 ROD (HIV-2 ROD replication in MT-4 cells, five days), 0.0075 ± 0.0005 µM. Besides, in series [1], the CC50 (usually the concentration giving 50% cytotoxicity) at 5 days is greater than 10 µM.

As to `CC(=O)O[C@@]12[C@H](OC(=O)c3ccccc3)[C@@H](C)[C@]3(O)[C@@H]4C=C(C)C(=O)[C@@H]4CC(C)=C[C@H]3[C@@H]1C2(C)C` [Compound 1, 13α-Acetyloxy-12β-benzoyloxy-4-epi-4,20-dideoxyphorbol], the IC50 with HIV-1 NL4.3 (setting [2]) was greater than 42 µM; with HIV-2 ROD it was 9.4 ± 1.4 µM. The compound also registered a CC50 at 5 days in series [1] of 42 µM.

Turning to `CC(=O)O[C@@]12[C@H](OC(=O)c3ccccc3)[C@@H](C)[C@]3(O)[C@@H]4C=C(C)C(=O)[C@H]4CC(C)=C[C@H]3[C@@H]1C2(C)C` [Compound 2, 13α-Acetyloxy-12β-benzoyloxy-4,20-dideoxyphorbol], the IC50 in the series on HIV-1 NL4.3 (setting [2]) is 7.5 ± 0.2 µM; in the series on HIV-1 NL4.3 (setting [3]) it was 1.1 to 7.47 µM; in the series on HIV-2 ROD, 1.7 ± 1.3 µM. Also, it took 94 µM to reach half-maximal cytotoxicity in series [1] (CC50 at 5 days).

As to `CC1=C[C@H]2[C@@H]3C(C)(C)[C@]3(OC(=O)CC(C)C)[C@H](OC(=O)c3ccccc3)[C@@H](C)[C@]2(O)[C@@H]2C=C(C)C(=O)[C@@H]2C1` [Compound 3, 12β-Benzoyloxy-13α-isovaleryloxy-4-epi-4,20-dideoxyphorbol], the IC50 with HIV-1 NL4.3 (setting [2]) and in the series with HIV-2 ROD was greater than 18 µM each time. In series [1], this compound yielded a cytotoxic concentration (CC50) at 5 days of 17.6 ± 0.3 µM.

For the compound `CC(=O)O[C@@H]1[C@@H](C)[C@]2(O)[C@@H]3C=C(C)C(=O)[C@@H]3CC(C)=C[C@H]2[C@@H]2C(C)(C)[C@]12OC(=O)CC(C)C` [Compound 4, 12β-Acetyloxy-13α-isovaleryloxy-4-epi-4,20-dideoxyphorbol], the IC50 in the series with HIV-1 NL4.3 (setting [2]) and with HIV-2 ROD was greater than 52 µM throughout. Further, the CC50 at 5 days in series [1] worked out at 52 µM.

Turning to `CC1=C[C@H]2[C@@H]3C(C)(C)[C@]3(OC(=O)C(C)C)[C@H](OC(=O)c3ccccc3)[C@@H](C)[C@]2(O)[C@@H]2C=C(C)C(=O)[C@@H]2C1` [Compound 5, 12β-benzoyloxy-13α-isobutanoyloxy-4-epi-4,20-dideoxyphforbol], the values for the IC50 with HIV-1 NL4.3 (setting [2]) and with HIV-2 ROD were greater than 34 µM and 4.6 ± 2.3 µM, respectively. The same compound registered a CC50 at 5 days in series [1] of 33.5 ± 0.4 µM.

On to `CC(=O)O[C@@H]1[C@@H](C)[C@]2(O)[C@@H]3C=C(C)C(=O)[C@@H]3CC(C)=C[C@H]2[C@@H]2C(C)(C)[C@]12OC(=O)C(C)C` [Compound 6, 12β-acetyloxy-13α-isobutanoyloxy-4-epi-4,20-dideoxyphorbol], for which the IC50 in the series on HIV-1 NL4.3 (setting [2]) and in the series on HIV-2 ROD was greater than 101 µM throughout. In series [1], the CC50 at 5 days came out at 101 µM.

Take `CC(=O)OCC1=C[C@H]2[C@@H]3C(C)(C)[C@]3(OC(C)=O)[C@H](OC(=O)c3ccccc3)[C@@H](C)[C@]2(O)[C@@H]2C=C(C)C(=O)[C@@H]2C1` [Compound 8, 13α,20-diacetylohy-12β-benzoyloxy-4-epi-4-deoxyphorbol]: the IC50 in the series on HIV-1 NL4.3 (setting [2]) is 3.3 ± 1.8 µM; in the series with HIV-1 NL4.3 (setting [3]), 1.1 to 7.47 µM; in the series with HIV-2 ROD, 1.1 ± 0.8 µM. The compound further yielded a CC50 at 5 days in series [1] of 20.8 ± 5.6 µM.

In the case of `C[C@H](Cn1cnc2c(N)ncnc21)OCP(=O)(O)O` [PMPA, reference compound], the IC50 was determined as 2.4 ± 0.7 µM with HIV-1 NL4.3 (setting [2]) and 0.7 ± 0.5 µM with HIV-2 ROD. This compound also returned a CC50 at 5 days in series [1] greater than 100 µM.

In the case of `CCCCCCCC(=O)O[C@@]12[C@H](OC(=O)c3ccccc3)[C@@H](C)[C@]3(O)[C@@H]4C=C(C)C(=O)[C@@]4(O)[C@H](O)C(CO)=C[C@H]3[C@@H]1C2(C)C` [stelleracin C], the IC50 in the series with HIV-1 is 0.0023 µM.

(Values after paper PMC11990108, “Anti-HIV Activity of Tigliane Derivatives from Euphorbia nicaeensis Roots” (Molecules, 2025).)
